Tests used:
H3K9me2 in HCT116 cells = assay: HCT116 H3K9me2 in-cell western assay; format: cell-based; conditions: Homo sapiens, HCT-116, 72 h, HCT116 cells, 72 hours incubation; read-out: H3K9me2 ICW IC50
In short: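 H3K9me2 signal (800 nm) was normalized to DRAQ5 DNA stain (700 nm) in an in-cell western. Cells were fixed with paraformaldehyde and probed overnight at 4° C with primary antibody.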

human EHMT1 982-1266 = target: T1, human EHMT1 982-1266 (Homo sapiens, UniProt Q9H9B1); assay: EHMT1 enzyme assay on histone peptide substrate (3H-SAM SPA); conditions: EHMT1 IC50, recombinant human EHMT1 982-1266, histone peptide substrate
T1 sequence (Q9H9B1 982-1266): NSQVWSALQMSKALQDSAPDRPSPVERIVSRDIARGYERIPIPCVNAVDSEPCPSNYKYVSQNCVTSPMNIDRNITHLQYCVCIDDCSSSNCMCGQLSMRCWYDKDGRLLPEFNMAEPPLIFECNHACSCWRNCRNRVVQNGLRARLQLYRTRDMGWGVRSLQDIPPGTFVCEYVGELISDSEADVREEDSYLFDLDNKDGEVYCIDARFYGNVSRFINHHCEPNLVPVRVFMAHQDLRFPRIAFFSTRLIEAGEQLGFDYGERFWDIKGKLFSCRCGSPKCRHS

human EHMT2 913-1193 = target: T2, human EHMT2 913-1193 (Homo sapiens, UniProt Q96KQ7); assay: EHMT2 enzyme assay on histone peptide substrate (3H-SAM SPA); conditions: EHMT2 IC50, recombinant human EHMT2 913-1193, histone peptide substrate
T2 sequence (Q96KQ7 913-1193): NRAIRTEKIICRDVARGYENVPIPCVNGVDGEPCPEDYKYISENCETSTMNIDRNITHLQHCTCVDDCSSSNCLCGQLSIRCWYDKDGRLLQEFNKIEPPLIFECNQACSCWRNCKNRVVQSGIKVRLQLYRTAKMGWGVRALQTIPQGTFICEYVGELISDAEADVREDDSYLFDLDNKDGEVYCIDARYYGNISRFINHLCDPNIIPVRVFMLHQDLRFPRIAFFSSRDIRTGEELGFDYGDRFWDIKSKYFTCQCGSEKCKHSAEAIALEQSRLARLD

IC50 (H3K9me2 in HCT116 cells) | IC50 (human EHMT1 982-1266) | IC50 (human EHMT2 913-1193) | Structure (SMILES)
< 100 nM | < 100 nM | 100 to 500 nM | CNc1cc(C)nc(Nc2cc3c(c(C4=CCN(C)CCC4)c2)OCO3)n1 [Compound 141, N4,6-dimethyl-N2-[7-(1-methyl-2,3,4,7-tetrahydroazepin-5-yl)-1,3-benzodioxol-5-yl]pyrimidine-2,4-diamine]
100 to 500 nM | 500 to 2000 nM | > 2000 nM | CNc1cc(C)nc(Nc2cc3c(c(C4=CCN(CCOC)CCC4)c2)OCO3)n1 [Compound 145, N2-[7-[1-(2-methoxyethyl)-2,3,4,7-tetrahydroazepin-5-yl]-1,3-benzodioxol-5-yl]-N4,6-dimethyl-pyrimidine-2,4-diamine]
100 to 500 nM | 100 to 500 nM | 500 to 2000 nM | CNc1cc(C)nc(Nc2cc3c(c(C4=CCN(C)CCC4)c2)OCCO3)c1 [Compound 146, N4,6-dimethyl-N2-[5-(1-methyl-2,3,4,7-tetrahydroazepin-5-yl)-2,3-dihydro-1,4-benzodioxin-7-yl]pyridine-2,4-diamine]
500 to 2000 nM | 500 to 2000 nM | > 2000 nM | CNc1cc(C)nc(Nc2cc(OCCCN3CCCC3)c3c(c2)OCO3)c1 [Compound 147, N4,6-dimethyl-N2-[7-(3-pyrrolidin-1-ylpropoxy)-1,3-benzodioxol-5-yl]pyridine-2,4-diamine]
500 to 2000 nM | 500 to 2000 nM | > 2000 nM | CNc1cc(C)nc(Nc2cc3c(c(C4=CCC(N)CC4)c2)OCC3)n1 (stereo not drawn) [Compound 148, N2-[7-(4-aminocyclohexen-1-yl)-2,3-dihydrobenzofuran-5-yl]-N4,6-dimethyl-pyrimidine-2,4-diamine]
> 2000 nM | > 2000 nM | > 2000 nM | CNc1cc(C)nc(Nc2cc3c(c(C4CCNCC4)c2)OCC3)n1 [Compound 149, N4,6-dimethyl-N2-[7-(4-piperidyl)-2,3-dihydrobenzofuran-5-yl]pyrimidine-2,4-diamine]
> 2000 nM | > 2000 nM | > 2000 nM | CNc1cc(C)nc(Nc2cc3c(c([C@H]4CC[C@H](N)CC4)c2)OCC3)n1 [Compound 153, N2-[7-(4-aminocyclohexyl)-2,3-dihydrobenzofuran-5-yl]-N4,6-dimethyl-pyrimidine-2,4-diamine]
100 to 500 nM | < 100 nM | 500 to 2000 nM | CNc1cc(C)nc(Nc2cc(OCCCN3CCCC3)c3c(c2)OC(F)(F)O3)n1 [Compound 154, N2-[2,2-difluoro-7-(3-pyrrolidin-1-ylpropoxy)-1,3-benzodioxol-5-yl]-N4,6-dimethyl-pyrimidine-2,4-diamine]
100 to 500 nM | < 100 nM | 100 to 500 nM | CNc1cc(C)nc(Nc2cc3c(c(C4=CCN(C)CCC4)c2)OC(F)(F)O3)n1 [Compound 156, N2-[2,2-difluoro-7-(1-methyl-2,3,4,7-tetrahydroazepin-5-yl)-1,3-benzodioxol-5-yl]-N4,6-dimethyl-pyrimidine-2,4-diamine]
> 2000 nM | > 2000 nM | > 2000 nM | CNc1cc(C)nc(Nc2cc3c(c(C4=CCN(CCOC)CCC4)c2)OC(F)(F)O3)n1 [Compound 158, N2-[2,2-difluoro-7-[1-(2-methoxyethyl)-2,3,4,7-tetrahydroazepin-5-yl]-1,3-benzodioxol-5-yl]-N4,6-dimethyl-pyrimidine-2,4-diamine]
< 100 nM | < 100 nM | < 100 nM | CNc1cc(C)nc(Nc2cc3c(c(C4=CCN(C)CCC4)c2Cl)OCCO3)n1 [Compound 165, N2-[6-chloro-5-(1-methyl-2,3,4,7-tetrahydroazepin-5-yl)-2,3-dihydro-1,4-benzodioxin-7-yl]-N4,6-dimethyl-pyrimidine-2,4-diamine]
< 100 nM | < 100 nM | 100 to 500 nM | CNc1cc(C)nc(Nc2cc3c(c(C4=CCN(C)CCC4)c2F)OCC32CC2)n1 [Compound 171]
< 100 nM | < 100 nM | 100 to 500 nM | CNc1cc(C)nc(Nc2cc3c(c(C4=CCN(C)CCC4)c2F)OCCC3(F)F)n1 [Compound 173]
< 100 nM | < 100 nM | < 100 nM | CNc1cc(C)nc(Nc2cc3c(c(C4=CCNCCC4)c2F)OCCC3(F)F)n1 [Compound 174]
< 100 nM | < 100 nM | 100 to 500 nM | CNc1cc(C)nc(Nc2cc3c(c(C4=CCNCCC4)c2F)OCC3(C)C)n1 [Compound 178]
100 to 500 nM | < 100 nM | 100 to 500 nM | CNc1cc(C)nc(Nc2cc3c(c(C4=CCN(C)CCC4)c2F)OCC3C)n1 (stereo not drawn) [Compound 181]
< 100 nM | < 100 nM | 100 to 500 nM | CNc1cc(C)nc(Nc2cc3c(c(C4=C[C@@H](C)NCCC4)c2F)OCC3)n1 [Compound 182]
< 100 nM | < 100 nM | 100 to 500 nM | CNc1cc(C)nc(Nc2cc3c(c(C4=C[C@H](C)NCCC4)c2F)OCC3)n1 [Compound 185]
100 to 500 nM | 100 to 500 nM | 500 to 2000 nM | CNc1cc(C)nc(Nc2c(F)c3c(c(C4=CCN(C)CCC4)c2F)OCC3)n1 [Compound 186]

IC50 (H3K9me2 in HCT116 cells) | IC50 (human EHMT1 982-1266) | IC50 (human EHMT2 913-1193) | Structure (SMILES)
100 to 500 nM | 100 to 500 nM | 500 to 2000 nM | CNc1cc(C)nc(Nc2cc3c(c(C4=CCNCCC4)c2OC)OCC3)n1 [Compound 192]
< 100 nM | < 100 nM | 100 to 500 nM | CNc1nc(Nc2cc3c(c(C4=CCNCCC4)c2F)OCC3)nc(C)c1OC [Compound 194]
< 100 nM | < 100 nM | 100 to 500 nM | CNc1cc(C)nc(Nc2cc3c(c(C4=CCN(C(C)C)CCC4)c2F)OCC3)n1 [Compound 195]
100 to 500 nM | 100 to 500 nM | 500 to 2000 nM | CNc1nc(Nc2cc3c(c(C4=CCN(C)CCC4)c2F)OCC3)nc(C)c1OC [Compound 196]
100 to 500 nM | 100 to 500 nM | 500 to 2000 nM | CNc1nc(Nc2cc3c(c(C4=CCNCCC4)c2F)OCCO3)nc(C)c1F [Compound 197]
100 to 500 nM | < 100 nM | 100 to 500 nM | CNc1cc(C)nc(Nc2cc3c(c(C4=CCNCCC4)c2O)OCC3)n1 [Compound 198]
100 to 500 nM | 100 to 500 nM | 500 to 2000 nM | CNc1cc(C)nc(Nc2cc3c(c(C4=CCN(CC(F)F)CCC4)c2F)OCC3)n1 [Compound 199]
100 to 500 nM | 100 to 500 nM | 500 to 2000 nM | CNc1cc(C)nc(Nc2cc3c(c(C4=CC(C)N(C)CCC4)c2F)OCC3)n1 (stereo not drawn) [Compound 200]
< 100 nM | < 100 nM | < 100 nM | CNc1cc(C)nc(Nc2cc3c(c(C4=CCN(C)CCC4)c2F)OCO3)n1 [Compound 203]
< 100 nM | < 100 nM | < 100 nM | CNc1cc(C)nc(Nc2cc3c(c(C4=CCN(C)C(C)CC4)c2F)OCC3)n1 (stereo not drawn) [Compound 204]
100 to 500 nM | 100 to 500 nM | 500 to 2000 nM | CNc1nc(Nc2cc3c(c(C4=CCN(C)CCC4)c2F)OCO3)nc(C)c1F [Compound 205]
< 100 nM | < 100 nM | 100 to 500 nM | CNc1cc(C)nc(Nc2cc3c(c(C4=CC(C)NCCC4)c2F)OCC3)n1 (stereo not drawn) [Compound 206]
< 100 nM | < 100 nM | < 100 nM | CNc1cc(C)nc(Nc2cc3c(c(C4=CCNCCC4)c2F)OCO3)n1 [Compound 207]
100 to 500 nM | 100 to 500 nM | 100 to 500 nM | CNc1cc(Nc2cc3c(c(C4=CCN(C)CCC4)c2F)OCO3)nc(C)c1F [Compound 208]
< 100 nM | 100 to 500 nM | 100 to 500 nM | CNc1nc(Nc2cc3c(c(C4=CCNCCC4)c2F)OCO3)nc(C)c1F [Compound 209]
< 100 nM | < 100 nM | 100 to 500 nM | CCc1c(C)nc(Nc2cc3c(c(C4=CCN(C)CCC4)c2F)OCC3)nc1NC [Compound 210]
< 100 nM | < 100 nM | < 100 nM | CNc1cc(Nc2cc3c(c(C4=CCNCCC4)c2F)OCO3)nc(C)c1F [Compound 211]
< 100 nM | < 100 nM | < 100 nM | CCc1c(C)nc(Nc2cc3c(c(C4=CCNCCC4)c2F)OCC3)nc1NC [Compound 212]
< 100 nM | < 100 nM | < 100 nM | CNc1nc(Nc2cc3c(c(C4=CCN(C)CCC4)c2F)OCC3)nc(C)c1C [Compound 214]

Structure (SMILES) | IC50 (H3K9me2 in HCT116 cells) | IC50 (human EHMT1 982-1266) | IC50 (human EHMT2 913-1193)
CNc1cc(C)nc(Nc2cc3c(c(N4CCNCC4)c2)OCC3)n1 [Compound 152] | > 2000 nM | > 2000 nM | > 2000 nM
CNc1cc(C)nc(Nc2cc3c(c(C4=CCNCC4)c2)OCC3)n1 [Compound 155, N4,6-dimethyl-N2-[7-(1,2,3,6-tetrahydropyridin-4-yl)-2,3-dihydrobenzofuran-5-yl]pyrimidine-2,4-diamine] | 100 to 500 nM | 100 to 500 nM | 500 to 2000 nM

Source: patent US20240368139A1, “NOVEL MODULATORS OF EHMT1 AND EHMT2 AND THERAPEUTIC USE THEREOF” (Tango Therapeutics, Inc., priority 2021, published 2024)
